In patent publication US11987564B2, “PTPRD inhibitors and uses thereof” (United States Government as represented by the Department …, priority 2021, dated 2024):
Read-outs that look alike come from different tables or passages of the source.

Legend:
PTPRS = PTPRS (Homo sapiens, UniProt Q13332); test: pNPP hydrolysis by recombinant PTPRS phosphatase; assay type: biochemical
From the text: (§1) Human […] ([…]-pY-[…]) phosphopeptide (Pierce/ThermoFisher) were synthesized.

recombinant PTPRD = recombinant PTPRD (Homo sapiens, UniProt P23468); test: pNPP hydrolysis by recombinant PTPRD phosphatase
Experimental: (§2) Phosphatase assays: Data for each assay type (3 wells/experimental condition, read using a Spectromax plate reader) was plotted vs time, and results derived from the slopes of linear regions were reported from triplicate independent experiments.
(§3) For assays of compound ligands that were likely pseudo-irreversible, 18 min preincubations were also added. For work determining the effect of flavonoids on pNPP hydrolysis, a 96 well half-area plate was prepared by first filling each well to be tested with 18 μL of 50 μM pNPP and 25 uL of running buffer, and 2 μL of DMSO containing the desired concentration of flavonoid and/or peptide. PTPRD phosphatase was diluted 1:50 in a dilution buffer.

PTPRJ = target: T1, PTPRJ (Homo sapiens, UniProt Q12913); test: pNPP hydrolysis by PTPRJ phosphatase; assay type: biochemical
T1 construct: purchased
T1 sequence (Q12913 36-1337): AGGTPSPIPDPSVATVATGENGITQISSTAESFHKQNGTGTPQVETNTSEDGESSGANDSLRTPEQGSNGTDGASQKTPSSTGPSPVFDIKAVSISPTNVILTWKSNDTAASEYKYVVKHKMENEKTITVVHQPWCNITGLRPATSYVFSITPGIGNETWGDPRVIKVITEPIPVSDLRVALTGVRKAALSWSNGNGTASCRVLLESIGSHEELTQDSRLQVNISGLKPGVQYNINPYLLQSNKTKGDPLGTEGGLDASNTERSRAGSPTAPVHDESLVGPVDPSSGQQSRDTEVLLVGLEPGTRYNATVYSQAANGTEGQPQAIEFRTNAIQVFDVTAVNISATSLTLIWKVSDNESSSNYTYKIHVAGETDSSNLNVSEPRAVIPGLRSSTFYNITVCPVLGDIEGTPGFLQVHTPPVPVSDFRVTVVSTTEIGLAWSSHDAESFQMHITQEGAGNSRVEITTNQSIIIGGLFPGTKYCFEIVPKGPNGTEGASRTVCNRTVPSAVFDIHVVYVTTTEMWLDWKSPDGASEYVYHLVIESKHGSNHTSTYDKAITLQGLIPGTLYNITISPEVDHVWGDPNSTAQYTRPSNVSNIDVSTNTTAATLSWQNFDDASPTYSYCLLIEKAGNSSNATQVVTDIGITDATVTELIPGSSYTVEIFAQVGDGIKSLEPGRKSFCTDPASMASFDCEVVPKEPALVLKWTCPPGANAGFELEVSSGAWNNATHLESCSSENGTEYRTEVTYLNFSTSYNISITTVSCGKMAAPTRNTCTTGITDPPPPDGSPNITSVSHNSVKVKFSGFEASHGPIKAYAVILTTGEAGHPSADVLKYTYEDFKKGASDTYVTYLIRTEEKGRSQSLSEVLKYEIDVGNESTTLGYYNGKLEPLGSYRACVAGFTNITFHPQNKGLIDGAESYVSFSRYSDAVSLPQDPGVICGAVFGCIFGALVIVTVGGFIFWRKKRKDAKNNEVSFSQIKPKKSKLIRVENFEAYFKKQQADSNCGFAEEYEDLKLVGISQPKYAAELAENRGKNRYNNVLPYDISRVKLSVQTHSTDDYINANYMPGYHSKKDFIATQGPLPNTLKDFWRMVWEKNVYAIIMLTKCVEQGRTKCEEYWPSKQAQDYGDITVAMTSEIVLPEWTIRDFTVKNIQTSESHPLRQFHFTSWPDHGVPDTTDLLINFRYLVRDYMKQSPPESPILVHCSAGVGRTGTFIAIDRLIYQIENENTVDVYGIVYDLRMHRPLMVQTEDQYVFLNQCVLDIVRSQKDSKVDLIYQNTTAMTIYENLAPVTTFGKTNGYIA
From the text: as §1

PTPN1 (PTP1B) = target: T2, PTPN1 (PTP1B) (Homo sapiens, UniProt P18031); test: pNPP hydrolysis by PTPN1 (PTP1B) phosphatase; assay type: biochemical; conditions: untitled table after Table 4; mean, SEM in wrapped line
T2 construct: purchased
T2 sequence (P18031 1-435): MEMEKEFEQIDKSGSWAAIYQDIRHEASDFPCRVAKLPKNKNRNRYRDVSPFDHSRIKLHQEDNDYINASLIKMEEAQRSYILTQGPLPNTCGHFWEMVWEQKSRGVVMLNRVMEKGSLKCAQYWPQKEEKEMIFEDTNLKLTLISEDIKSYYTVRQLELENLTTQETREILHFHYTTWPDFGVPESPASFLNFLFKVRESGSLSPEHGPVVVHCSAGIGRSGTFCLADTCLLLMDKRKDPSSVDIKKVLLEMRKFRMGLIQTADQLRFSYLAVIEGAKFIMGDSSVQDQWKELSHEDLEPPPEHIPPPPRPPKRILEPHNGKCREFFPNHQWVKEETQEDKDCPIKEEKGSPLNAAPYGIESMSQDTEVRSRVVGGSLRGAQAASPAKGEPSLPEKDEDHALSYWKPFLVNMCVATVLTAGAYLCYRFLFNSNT

PTPRF = PTPRF (Homo sapiens, UniProt P10586); test: pNPP hydrolysis by recombinant PTPRF phosphatase
Experimental: as §2, §3

[1] = Table 4, mean (SEM) of three independent experiments, * = instability, no valid triplicate
[2] = untitled table after Table 4, mean, SEM in wrapped line
[3] = PTPRD IC50, Table 4, mean (SEM) of three independent experiments, * = instability, no valid triplicate
[4] = PTPRD IC50, untitled table after Table 4, mean, SEM in wrapped line, compounds with PTPRD IC50 <5 μM
[5] = PTPRF IC50, untitled table after Table 4, mean, SEM in wrapped line
[6] = PTPRF IC50, Table 4, mean (SEM) of three independent experiments, * = instability, no valid triplicate

recombinant PTPRD, sequence (P23468 21-1912): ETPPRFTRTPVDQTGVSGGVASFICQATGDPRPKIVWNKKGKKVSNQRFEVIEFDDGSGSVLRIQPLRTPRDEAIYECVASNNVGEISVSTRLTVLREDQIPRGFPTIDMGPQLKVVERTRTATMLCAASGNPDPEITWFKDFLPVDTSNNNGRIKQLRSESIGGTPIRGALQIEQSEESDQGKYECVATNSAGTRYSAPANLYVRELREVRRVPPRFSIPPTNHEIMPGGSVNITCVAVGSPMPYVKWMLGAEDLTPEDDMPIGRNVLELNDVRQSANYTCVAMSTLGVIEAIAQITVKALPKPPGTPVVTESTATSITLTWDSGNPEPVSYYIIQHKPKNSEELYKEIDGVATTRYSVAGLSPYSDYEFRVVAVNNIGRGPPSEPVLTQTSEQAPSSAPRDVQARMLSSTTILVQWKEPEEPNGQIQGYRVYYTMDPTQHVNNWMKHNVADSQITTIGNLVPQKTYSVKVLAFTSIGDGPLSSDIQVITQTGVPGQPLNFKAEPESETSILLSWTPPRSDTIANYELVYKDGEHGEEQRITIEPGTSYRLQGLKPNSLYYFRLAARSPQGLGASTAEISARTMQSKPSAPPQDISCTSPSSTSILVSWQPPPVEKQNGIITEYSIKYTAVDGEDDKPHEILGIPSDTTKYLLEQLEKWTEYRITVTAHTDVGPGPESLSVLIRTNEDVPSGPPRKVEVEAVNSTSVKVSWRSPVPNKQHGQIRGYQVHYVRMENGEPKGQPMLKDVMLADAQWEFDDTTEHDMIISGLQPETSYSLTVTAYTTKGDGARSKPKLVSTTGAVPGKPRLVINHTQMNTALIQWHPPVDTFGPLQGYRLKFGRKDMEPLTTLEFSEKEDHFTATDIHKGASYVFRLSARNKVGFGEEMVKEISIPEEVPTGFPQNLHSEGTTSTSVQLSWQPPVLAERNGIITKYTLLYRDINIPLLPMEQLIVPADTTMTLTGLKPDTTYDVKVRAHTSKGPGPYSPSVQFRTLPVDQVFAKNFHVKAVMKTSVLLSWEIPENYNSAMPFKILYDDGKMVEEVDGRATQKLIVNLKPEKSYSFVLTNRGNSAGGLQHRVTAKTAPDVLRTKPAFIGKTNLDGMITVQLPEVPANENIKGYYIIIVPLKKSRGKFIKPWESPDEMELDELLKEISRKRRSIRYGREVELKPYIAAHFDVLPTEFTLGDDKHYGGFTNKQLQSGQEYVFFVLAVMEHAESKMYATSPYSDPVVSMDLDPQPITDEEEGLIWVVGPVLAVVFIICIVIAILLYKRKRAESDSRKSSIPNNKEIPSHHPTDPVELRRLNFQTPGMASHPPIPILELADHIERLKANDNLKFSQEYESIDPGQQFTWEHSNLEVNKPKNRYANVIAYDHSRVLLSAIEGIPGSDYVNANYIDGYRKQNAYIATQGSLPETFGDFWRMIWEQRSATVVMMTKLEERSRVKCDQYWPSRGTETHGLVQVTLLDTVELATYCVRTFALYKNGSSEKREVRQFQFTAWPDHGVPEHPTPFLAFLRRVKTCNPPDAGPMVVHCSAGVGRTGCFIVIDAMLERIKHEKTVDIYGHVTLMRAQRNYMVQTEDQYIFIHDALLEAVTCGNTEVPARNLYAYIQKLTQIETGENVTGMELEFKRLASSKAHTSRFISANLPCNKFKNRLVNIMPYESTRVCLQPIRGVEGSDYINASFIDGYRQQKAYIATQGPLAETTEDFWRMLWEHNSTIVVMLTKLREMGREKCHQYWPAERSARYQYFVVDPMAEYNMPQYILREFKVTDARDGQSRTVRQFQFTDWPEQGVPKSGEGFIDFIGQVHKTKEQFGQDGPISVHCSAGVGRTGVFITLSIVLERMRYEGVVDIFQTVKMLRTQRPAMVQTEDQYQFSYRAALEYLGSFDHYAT
PTPRS, sequence (Q13332 30-1948, species assumed): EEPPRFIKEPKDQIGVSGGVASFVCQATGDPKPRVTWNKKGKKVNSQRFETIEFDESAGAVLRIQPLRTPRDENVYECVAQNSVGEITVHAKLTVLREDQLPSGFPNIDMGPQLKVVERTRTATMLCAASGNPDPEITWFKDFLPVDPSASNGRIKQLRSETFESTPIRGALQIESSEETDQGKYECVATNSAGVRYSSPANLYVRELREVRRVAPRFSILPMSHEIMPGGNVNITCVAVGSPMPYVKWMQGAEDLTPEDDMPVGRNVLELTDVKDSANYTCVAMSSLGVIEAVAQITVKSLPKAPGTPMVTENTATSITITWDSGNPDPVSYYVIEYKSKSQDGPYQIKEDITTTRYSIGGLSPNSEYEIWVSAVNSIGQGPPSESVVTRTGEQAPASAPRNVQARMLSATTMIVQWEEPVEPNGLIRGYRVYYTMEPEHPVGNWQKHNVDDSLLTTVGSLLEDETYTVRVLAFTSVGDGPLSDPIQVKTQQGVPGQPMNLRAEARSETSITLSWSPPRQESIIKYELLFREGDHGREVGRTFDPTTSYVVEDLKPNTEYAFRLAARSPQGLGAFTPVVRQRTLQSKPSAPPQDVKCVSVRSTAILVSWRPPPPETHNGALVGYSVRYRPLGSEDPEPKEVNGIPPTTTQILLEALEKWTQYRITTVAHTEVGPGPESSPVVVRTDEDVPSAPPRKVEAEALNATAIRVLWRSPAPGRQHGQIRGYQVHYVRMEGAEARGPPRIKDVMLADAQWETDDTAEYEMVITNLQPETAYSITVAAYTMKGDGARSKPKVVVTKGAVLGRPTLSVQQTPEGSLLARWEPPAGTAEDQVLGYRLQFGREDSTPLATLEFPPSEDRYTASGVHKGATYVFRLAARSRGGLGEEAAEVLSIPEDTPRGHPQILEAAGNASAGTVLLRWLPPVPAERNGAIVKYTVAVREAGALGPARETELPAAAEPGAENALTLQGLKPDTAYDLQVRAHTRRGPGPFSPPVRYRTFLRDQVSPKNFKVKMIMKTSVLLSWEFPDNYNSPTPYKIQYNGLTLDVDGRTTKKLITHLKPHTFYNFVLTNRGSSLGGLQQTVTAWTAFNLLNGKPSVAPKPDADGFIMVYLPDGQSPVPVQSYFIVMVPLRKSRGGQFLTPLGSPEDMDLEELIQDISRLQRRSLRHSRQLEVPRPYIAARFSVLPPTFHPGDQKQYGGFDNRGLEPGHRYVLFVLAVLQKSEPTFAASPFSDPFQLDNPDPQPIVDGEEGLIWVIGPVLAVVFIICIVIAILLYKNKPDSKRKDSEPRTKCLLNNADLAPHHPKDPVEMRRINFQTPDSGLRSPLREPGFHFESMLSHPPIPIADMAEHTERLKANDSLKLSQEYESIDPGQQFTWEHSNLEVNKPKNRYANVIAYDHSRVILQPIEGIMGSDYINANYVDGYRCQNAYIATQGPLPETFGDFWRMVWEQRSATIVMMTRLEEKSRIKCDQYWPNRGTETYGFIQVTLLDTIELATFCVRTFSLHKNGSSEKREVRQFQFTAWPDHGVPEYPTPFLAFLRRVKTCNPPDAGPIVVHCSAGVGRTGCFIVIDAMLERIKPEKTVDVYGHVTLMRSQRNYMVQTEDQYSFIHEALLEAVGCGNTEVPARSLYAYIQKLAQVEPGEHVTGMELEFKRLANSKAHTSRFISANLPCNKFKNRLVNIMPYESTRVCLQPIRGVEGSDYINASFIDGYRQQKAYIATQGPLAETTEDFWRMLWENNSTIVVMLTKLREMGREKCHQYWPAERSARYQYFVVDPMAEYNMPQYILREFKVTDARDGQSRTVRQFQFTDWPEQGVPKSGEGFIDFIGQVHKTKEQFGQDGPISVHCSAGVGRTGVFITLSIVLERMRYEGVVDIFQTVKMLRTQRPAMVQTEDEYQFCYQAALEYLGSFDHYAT

SMILES | IC50 (PTPRS; [1]) | IC50 (PTPRS; [2]) | IC50 (recombinant PTPRD; [3]) | IC50 (recombinant PTPRD; [4]) | IC50 (PTPRJ; [1]) | IC50 (PTPRJ; [2]) | IC50 (PTPN1 (PTP1B)) | IC50 (PTPRF; [5]) | IC50 (PTPRF; [6]) | IC50 (recombinant PTPRD; read-out: PTPRD IC50, untitled table after Table 4, mean, SEM in wrapped line, compounds with PTPRD IC50 <5 μM)
COc1c(OCCc2ccccc2)cc2c(c1C=O)CC(O)OC2=O (centres unmarked) [Compound 50, 3-Hydroxy-6-methoxy-1-oxo-7-phenethoxyisochromane-5-carbaldehyde] | 3.03 µM | 3.03 µM | 4.57 µM | 4.57 µM | 54.8 µM | 54.8 µM | 219 µM |  |  | 
COc1cccc(COc2cc3c(c(C=O)c2OC)CC(O)OC3=O)c1 (centres unmarked) [Compound 31, 3-Hydroxy-6-methoxy-7-((3-methoxybenzyl)oxy)-1-oxoisochromane-5-carbaldehyde] | 13 µM | 3.25 µM | 4.12 µM | 5.64 µM |  | 62.8 µM | 203 µM | 5.73 µM |  | 
COc1c(OCc2ccc(Br)cc2)cc2c(c1C=O)CC(O)OC2=O (centres unmarked) [Compound 39, 7-((4-Bromobenzyl)oxy)-3-hydroxy-6-methoxy-1-oxoisochromane-5-carbaldehyde] | 5 µM | 5 µM |  |  | 29.9 µM | 29.9 µM |  | 3.82 µM | 3.82 µM | 
COc1c(OCc2ccc(C)s2)cc2c(c1C=O)CC(O)OC2=O (centres unmarked) [Compound 46, 3-Hydroxy-6-methoxy-7-((5-methylthiophen-2-yl)methoxy)-1-oxoisochromane-5-carbaldehyde] | 1.4 µM | 1.4 µM | 0.92 µM | 0.92 µM | 19.8 µM | 19.8 µM |  | 3.5 µM | 3.5 µM | 
COc1c(OCc2ccc(Oc3ccc(F)cc3)cc2)cc2c(c1C=O)CC(O)OC2=O (centres unmarked) [Compound 44, 7-((4-(4-Fluorophenoxy)benzyl)oxy)-3-hydroxy-6-methoxy-1-oxoisochromane-5-carbaldehyde] |  |  | 2.49 µM | 2.49 µM |  |  |  |  |  | 
COc1c(OCc2ccc(C)cc2)cc2c(c1C=O)CC(O)OC2=O (centres unmarked) [Compound 29, 3-Hydroxy-6-methoxy-7-((4-methylbenzyl)oxy)-1-oxoisochromane-5-carbaldehyde] | 3.58 µM | 3.58 µM | 3.8 µM | 3.8 µM | 37.7 µM | 37.7 µM | 148 µM | 6.57 µM | 6.57 µM | 
COc1c(OCc2c(Cl)cc(Cl)cc2Cl)cc2c(c1C=O)CC(O)OC2=O (centres unmarked) [Compound 42] | 2.15 µM | 2.2 µM | 2.47 µM | 2.5 µM | 23.6 µM | 23.6 µM | 28.9 µM |  |  | 
COc1c(OCc2ccccc2)cc2c(c1C=O)CC(O)OC2=O (centres unmarked) [Compound 27, 7-(Benzyloxy)-3-hydroxy-6-methoxy-1-oxoisochromane-5-carbaldehyde] | 1.6 µM | 1.6 µM |  |  | 47.2 µM | 47.2 µM | 171 µM | 3.62 µM | 3.62 µM | 1.64 µM
COc1c(OCCCC(F)(F)F)cc2c(c1C=O)CC(O)OC2=O (centres unmarked) [Compound 63, 3-Hydroxy-6-methoxy-1-oxo-7-(4,4,4-trifluorobutoxy)isochromane-5-carbaldehyde] |  |  |  |  |  | 108 µM |  |  |  | 
COc1c(OCc2ccc(Oc3ccccc3)cc2)cc2c(c1C=O)CC(O)OC2=O (centres unmarked) [Compound 43, 3-Hydroxy-6-methoxy-1-oxo-7-((4-phenoxybenzyl)oxy)isochromane-5-carbaldehyde] | 1.34 µM | 1.34 µM | 1.6 µM | 1.6 µM | 28.4 µM | 28.4 µM | 16.7 µM | 3.93 µM | 3.93 µM | 
COc1c(OCc2ccc3ccccc3c2)cc2c(c1C=O)CC(O)OC2=O (centres unmarked) [Compound 49, 3-Hydroxy-6-methoxy-7-(naphthalen-2-ylmethoxy)-1-oxoisochromane-5-carbaldehyde] | 4.61 µM | 4.61 µM |  |  | 33.3 µM | 33.3 µM | 221 µM | 5.87 µM | 5.87 µM | 
COc1c(OCCCCc2ccc(Cl)cc2)cc2c(c1C=O)CC(O)OC2=O (centres unmarked) [Compound 53, 7-(4-(4-Chlorophenyl)butoxy)-3-hydroxy-6-methoxy-1-oxoisochromane-5-carbaldehyde] | 3.09 µM | 3.09 µM |  |  | 28.9 µM | 28.9 µM | 65.7 µM | 5.67 µM | 5.67 µM | 
COc1c(OCc2ccc(Cl)cc2Cl)cc2c(c1C=O)CC(O)OC2=O (centres unmarked) [Compound 40, 7-((2,4-Dichlorobenzyl)oxy)-3-hydroxy-6-methoxy-1-oxoisochromane-5-carbaldehyde] | 1.03 µM | 1.03 µM |  |  | 14.6 µM | 14.6 µM | 76 µM | 3.55 µM | 3.55 µM | 

The next lines start with the values.

IC50 (PTPRS; [1]) | IC50 (PTPRS; [2]) | IC50 (recombinant PTPRD; [3]) | IC50 (recombinant PTPRD; [4]) | IC50 (PTPRJ; [1]) | IC50 (PTPRJ; [2]) | IC50 (PTPN1 (PTP1B)) | IC50 (PTPRF; [5]) | IC50 (PTPRF; [6]) | IC50 (recombinant PTPRD; read-out: PTPRD IC50, untitled table after Table 4, mean, SEM in wrapped line, compounds with PTPRD IC50 <5 μM) | SMILES
0.77 µM | 0.77 µM |  |  | 9.81 µM | 9.8 µM | 27.1 µM | 1.16 µM | 1.16 µM |  | COc1c(OCC2CCCCCC2)cc2c(c1C=O)CC(O)OC2=O (centres unmarked) [Compound 69]
2.27 µM | 2.27 µM | 4.45 µM | 4.45 µM | 55.5 µM | 55.5 µM | 320 µM | 6.8 µM | 6.8 µM |  | COc1c(OCCCCc2ccc(O)cc2O)cc2c(c1C=O)CC(O)OC2=O (centres unmarked) [Compound 55]
2.76 µM | 2.76 µM | 2.82 µM | 2.82 µM | 51.9 µM | 51.9 µM | 121 µM | 3.87 µM | 3.87 µM |  | COc1c(OCCC(C)C)cc2c(c1C=O)CC(O)OC2=O (centres unmarked) [Compound 58, 3-Hydroxy-7-(isopentyloxy)-6-methoxy-1-oxoisochromane-5-carbaldehyde]
 |  | 4.18 µM | 4.18 µM |  |  |  |  |  |  | COc1c(OCC2CC2)cc2c(c1C=O)CC(O)OC2=O (centres unmarked) [Compound 64, 7-Cyclopropylmethoxy-3-hydroxy-6-methoxy-1-oxo-isochroman-5-carbaldehyde]
1.06 µM | 1.06 µM |  |  |  | 0.56 µM | 101 µM | 0.76 µM | 0.76 µM |  | COc1c(OCC2CCCCC2)cc2c(c1C=O)CC(O)OC2=O (centres unmarked) [Compound 68, 7-Cyclohexylmethoxy-3-hydroxy-6-methoxy-1-oxo-isochroman-5-carbaldehyde]
0.93 µM | 0.93 µM |  |  |  |  |  | 4.41 µM | 4.41 µM |  | COc1c(OCCCc2ccccc2)cc2c(c1C=O)CC(O)OC2=O (centres unmarked) [Compound 52, 3-Hydroxy-6-methoxy-1-oxo-7-(3-phenylpropoxy)isochromane-5-carbaldehyde]
